The values below come from patent US20110230472A1, “RING-FUSED AZOLE DERIVATIVE HAVING PI3K-INHIBITING ACTIVITY” (Shionogi & Co., Ltd., priority 2008, published 2011).

The target in series [1] is T1, PI-3 kinase γ (Homo sapiens, UniProt P48736). The series can be described thus: PI3Kγ inhibitory activity, PI3-kinase HTRF assay (inhibition ratio). In kind it is biochemical. The note with it: 0.5 h; PI3Kγ, compound at 10 μM. Summed up:
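PI3Kγ preincubated 10 min with compound and PIP2 substrate (MgCl2, DTT), then ATP added for 30 min at room temperature. PIP3 detected by HTRF (665/620 nm ratio) after 18 h. Inhibition ratio at 50 or 10 μmol/L, normalised to no-compound and no-enzyme controls.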

Series [2] has as its target T1, PI-3 kinase γ. Put plainly: PI3Kγ inhibitory activity (Ki value), HTRF. In kind it is biochemical. Particulars: Ki=IC50/(1+10 μM ATP/Km). As to the method: The PI3Kγ inhibitory activity (Ki value) of a compound was evaluated according to the following procedure:
5 μL of a compound solution containing 10% DMSO and 200 μmol/L of a compound was changed to 5 μL of a compound solution containing 10% DMSO and either 200, 64, 20, 6.4, 2, 0.64, or 0.20 μmol/L of the compound (optionally, this is diluted to a lower concentration). Using a method similar to the method for measuring PI3Kγ inhibitory activity, inhibition ratios were measured in the presence of the compound at 50, 16, 5, 1.6, 0.5, 0.16, and 0.05 μmol/L (optionally, a lower concentration). Then an IC50 value was calculated by a logistic approximation method or the linear regression method using two concentrations that across 50% inhibition. Separately, the ATP concentration in the reaction solution (40 μmol/L ATP, 10 mmol/L MgCl2, 5 mmol/L DTT) at the time of the start of a reaction in the absence of the compound was changed to 80, 40, 20, 10, 5, 2.5, 1.25, or 0.625 μmol/L. Then, HTRF ratios were measured by a similar method. The value obtained by subtracting the HTRF ratio at each ATP concentration from the HTRF ratio in the absence of PI-3 kinase γ was defined as the value obtained by multiplying reaction rate (v) at each ATP concentration with a constant. The Michaelis-Menten constant Km was then calculated by the Lineweaver-Burk plot method. The Ki value of a compound was calculated by the following formula.
Ki=IC50 value/(1+10 μM (test ATP concentration)/Km (μM))
For orientation: Time-resolved FRET reads energy transfer from a long-lived donor to a nearby acceptor.

The subject of series [3] is AKT phosphorylation in human monocyte-like cell line THP-1. The series can be described thus: AKT phosphorylation inhibitory activity in MCP-1-stimulated THP-1 cells (ELISA). The class given is cell-based. Particulars: 1 μmol/L solution of each compound, MCP-1 stimulation, read-out: AKT phosphorylation inhibition ratio. As to the method: (1) The AKT phosphorylation inhibitory activity of a compound was evaluated according to the following procedure. (2) Human monocyte-like cell line THP-1 was washed with RPMI-1640 media, incubated in the presence of 5% CO2 at 37° C. for 3 hours, washed with Hank's balanced salt solution (HBSS), adjusted to a cell concentration of 6.6×10^6/mL, and then used in an experiment. (3) 30 μL of the cell suspension and 60 μL of each compound solution containing 0.2% DMSO/HBSS were mixed and then preincubated at 37° C. for 5 minutes. 30 μL of HBSS containing 4 μg/mL of MCP-1 was added thereto and then incubated for 30 seconds at 37° C. (4) 30 μl of a cell lysate (20 mmol/L Tris-HCl (pH 7.5), 150 mmol/L NaCl, 1 mmol/L Na2EDTA, 1 mmol/L EGTA, 1% Triton, 2.5 mmol/L sodium pyrophosphate, 1 mmol/L β-glycerophosphate, 1 mmol/L Na3VO4, 1 μg/ml leupeptin, 50 nmol/L APMSF) was added thereto to lyse cells. (5) The amount of AKT phosphorylation in the cell lysate was measured by ELISA method. (6) Anti-phospho-Akt (Ser473) antibodies (clone 193H12, derived from a rabbit) were immobilized onto the solid phase of a micro well plate. 100 μL of the prepared cell lysate was added to the micro well plate, incubated for 2 hours at 37° C., and then washed four times with Phosphate Buffered Saline containing 0.05% Tween-20. (7) An anti-AKT1 antibody (clone 2H10, derived from a mouse) was added thereto, incubated for 1 hour at 37° C., washed similarly, and then reacted with an HRP-labeled anti-mouse IgG antibody. (8) After incubating at 37° C. for 30 minutes and then washing similarly, 100 μL of TMB (3,3′,5,5″-tetramethylbenzidine) was added thereto, followed by reacting at room temperature for 30 minutes. (9) 100 μL of 1 mol/L sulfuric acid was added to quench the color reaction and then the absorbance at 450 nm was measured. (10) A series of diluted cell lysates of a positive control (a sample in the absence of a compound) were used to prepare a calibration curve, the amount of AKT phosphorylation in a sample in the absence of MCP-1 was defined as 0% activity to calculate an inhibition ratio. The measurement was performed for a 1 μmol/L solution of each compound.
On the technique in general: In an ELISA, binding on a coated surface is turned into a signal by an enzyme label.

Series [4] has as its system Salmonella typhimurium TA98 line, TA100 line. Put plainly: FAT test (mutagenicity). Further details: key: When the mutagenicity is negative, the compound is shown as (−); When positive, the compound is shown as (+). Particulars: TA98 and TA100 lines; non-metabolism-activation and metabolism-activation conditions. As to the method:
20 μL of Salmonella enterica subsp. typhimurium (Salmonella typhimurium TA98 line, TA100 line) cryopreserved was inoculated to 10 mL of liquid nutrient medium (2.5% Oxoid nutrient broth No. 2) and then precultured at 37° C. for 10 hours with shaking. Regarding TA98 line, after 9 mL of a bacterial suspension was centrifuged (2000×g, 10 minutes) to remove the culture solution, the bacteria was suspended in 9 mL of Micro F buffer solution (K2HPO4: 3.5 g/L, KH2PO4: 1 g/L, (NH4)2SO4: 1 g/L, tri-sodium citric acid dihydrate: 0.25 g/L, MgSO4.7H2O: 0.1 g/L), and then added to 110 mL of Exposure media (Micro F buffer solution containing biotin: 8 μg/mL, histidine: 0.2 μg/mL, glucose: 8 mg/mL). Regarding TA 100 line, 120 mL of Exposure media was added to 3.16 mL of the bacterial suspension to prepare a test bacterial suspension. 12 μL of a solution of a test substance in DMSO (diluted eight times in a common ratio of 2 from the maximum dose of 50 mg/mL); 12 μL of DMSO as a negative control; 50 μg/mL 4-nitroquinoline-1-oxide solution in DMSO for TA98 line or 0.25 μg/mL 2-(2-furyl)-3-(5-nitro-2-furyl)acrylamide solution in DMSO as a positive control for TA 100 line in the case of a non-metabolism-activation condition; 12 μL of 40 μg/mL 2-aminoanthracene solution in DMSO for TA98 line or 20 μg/mL of 2-aminoanthracene solution in DMSO for TA100 line in the case of a metabolism-activation condition; were each mixed with 588 μL of the test bacterial suspension (in the case of a metabolism activation condition, a mixed solution of 498 μL of the test bacterial suspension and 90 μL S9 mix) and then cultured at 37° C. at 90 minutes with shaking. 460 μL of the bacterial suspension to which a test substance was exposed was mixed with 230 μL of Indicator media (a Micro F buffer solution containing 8 μg/mL biotin, 0.2 μg/mL histidine, 8 mg/mL glucose, and 37.5 μg/mL bromocresol purple). 50 μL thereof was dispensed to microplate 48 wells/dose and then statically cultured at 37° C. for 3 days. In a well containing bacteria which obtained proliferation potency by mutation of the amino acid (histidine) synthetase gene, the change of pH caused the color change from purple to yellow. Thus, in 48 wells per dose, the number of the bacteria-proliferation wells in which the color changed to yellow was counted, compared with a group of negative controls, and then evaluated. When the mutagenicity is negative, the compound is shown as (−). When positive, the compound is shown as (+).

T1 sequence (P48736 whole entry): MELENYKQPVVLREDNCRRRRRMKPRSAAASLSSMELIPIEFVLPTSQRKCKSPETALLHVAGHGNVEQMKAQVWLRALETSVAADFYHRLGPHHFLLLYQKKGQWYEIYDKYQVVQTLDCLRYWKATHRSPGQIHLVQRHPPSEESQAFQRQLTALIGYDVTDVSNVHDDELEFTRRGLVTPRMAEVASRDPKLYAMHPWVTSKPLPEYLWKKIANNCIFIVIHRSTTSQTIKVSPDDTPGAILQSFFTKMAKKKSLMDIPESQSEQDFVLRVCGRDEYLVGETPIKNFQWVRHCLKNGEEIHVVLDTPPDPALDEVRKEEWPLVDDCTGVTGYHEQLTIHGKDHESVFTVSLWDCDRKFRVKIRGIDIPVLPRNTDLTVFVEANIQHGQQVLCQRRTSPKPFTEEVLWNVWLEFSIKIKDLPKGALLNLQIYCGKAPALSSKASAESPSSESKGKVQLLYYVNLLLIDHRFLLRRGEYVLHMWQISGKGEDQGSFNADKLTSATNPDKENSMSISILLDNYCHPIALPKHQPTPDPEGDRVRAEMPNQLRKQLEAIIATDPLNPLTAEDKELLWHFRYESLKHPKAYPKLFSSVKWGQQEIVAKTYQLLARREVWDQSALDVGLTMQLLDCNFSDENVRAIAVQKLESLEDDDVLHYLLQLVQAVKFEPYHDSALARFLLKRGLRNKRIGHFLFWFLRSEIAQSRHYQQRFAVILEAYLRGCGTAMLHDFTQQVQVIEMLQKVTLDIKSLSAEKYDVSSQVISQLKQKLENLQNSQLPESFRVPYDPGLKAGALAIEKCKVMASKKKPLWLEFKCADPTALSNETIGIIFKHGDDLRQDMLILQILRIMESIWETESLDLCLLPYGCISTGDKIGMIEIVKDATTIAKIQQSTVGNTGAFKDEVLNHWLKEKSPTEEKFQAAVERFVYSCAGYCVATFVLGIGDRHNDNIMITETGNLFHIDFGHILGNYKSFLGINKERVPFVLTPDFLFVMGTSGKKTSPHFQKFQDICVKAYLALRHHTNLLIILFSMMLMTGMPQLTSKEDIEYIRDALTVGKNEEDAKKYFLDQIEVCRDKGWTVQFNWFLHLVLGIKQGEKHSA

For the compound `COc1cc(N2CCc3nc(NC(=O)NCCC(=O)N4CCCCC4)sc3C2)nc(OC)n1` [Compound I-266], the inhibition at 10 µM on PI-3 kinase γ [1] was at least 95%. The Ki – broadly, a dissociation constant, usually derived from enzyme kinetics or from competition with a known ligand – on PI-3 kinase γ [2] stood at 36 nM. Further, in series [3], the inhibition was over 99.5%. Moreover, in series [4], the “mutagenicity (FAT test)” value is recorded as “(−)”.
